In ChEMBL document CHEMBL4421722, “Inhibitors of protein prenyltransferases” (2013):
Each block holds one molecule with its values, some of them ahead of it. Activity calls are given as the source filed them. No cut-off for these calls is given here.

Assays:
K562 [1] = test: Induction of cell cycle arrest in human K562 cells assessed as accumulation at G1 phase incubated for 48 hrs by flow cytometry; type: functional, cell-based
PANC-1 = test: Antiproliferative activity against human PANC1 cells assessed as inhibition of cell proliferation incubated for 72 hrs by CCK8 assay; type: functional, cell-based; conditions: PANC-1, 72 h
HPAC = test: Antiproliferative activity against human HPAC cells assessed as inhibition of cell proliferation incubated for 72 hrs by CCK8 assay; type: functional, cell-based
[2] = (§1) Competitive inhibition of rat recombinant geranylgeranyltransferase type I expressed in Escherichia coli assessed as reduction in geranylgeranylation of RhoA incubated for 30 mins in presence of varying level of [3H]GGPP and fixed RhoA levels by scintillation counting assay relative to control
BT-474 = test: Antiproliferative activity against human BT474 cells assessed as inhibition of cell proliferation incubated for 72 hrs by CCK8 assay; type: functional, cell-based; conditions: BT-474, 72 h
CFPAC-1 = test: Antiproliferative activity against human CFPAC-1 cells assessed as inhibition of cell proliferation incubated for 72 hrs by CCK8 assay; type: functional, cell-based; conditions: CFPAC-1, 72 h
Jurkat = test: Antiproliferative activity against human Jurkat cells assessed as inhibition of cell proliferation incubated for 72 hrs by CCK8 assay; type: functional, cell-based
[3] = Antiproliferative activity against human SEMK2 cells assessed as inhibition of cell proliferation incubated for 6 days by CCK8 assay; type: functional, cell-based; conditions: SEMK2, 144 h
MCF7 = test: Antiproliferative activity against human MCF7 cells assessed as inhibition of cell proliferation incubated for 6 days by CCK8 assay; type: functional, cell-based
Capan-2 = test: Antiproliferative activity against human Capan2 cells assessed as inhibition of cell proliferation incubated for 72 hrs by CCK8 assay; type: functional, cell-based; conditions: Capan-2, 72 h
ASPC1 = test: Antiproliferative activity against human AsPC1 cells assessed as inhibition of cell proliferation incubated for 6 days by CCK8 assay; type: functional, cell-based; conditions: ASPC1, 144 h
K562 [4] = test: Induction of cell cycle arrest in human K562 cells assessed as reduction in accumulation at S phase incubated for 48 hrs by flow cytometry; type: functional, cell-based
MIA PaCa-2 = test: Antiproliferative activity against human MIAPaCa2 cells assessed as inhibition of cell proliferation incubated for 72 hrs by CCK8 assay; type: functional, cell-based; conditions: MIA PaCa-2, 72 h
K562 [5] = test: Antiproliferative activity against human K562 cells assessed as inhibition of cell proliferation incubated for 72 hrs by CCK8 assay; type: functional, cell-based; conditions: for GI50: K562, 72 h
HEK293 [6] = test: Inhibition of geranylgeranyltransferase type I in HEK293 cells expressing Myc-HA-tagged Rheb-CVSL assessed as effect on unprenylated Rap1 accumulation at 12.5 to 50 uM incubated for 48 hrs by SDS-PAGE and immunoblot analysis; type: cell-based; conditions: Homo sapiens
Rattus norvegicus [7] = organism: Rattus norvegicus; test: as §1
[8] = target: Geranylgeranyl transferase type-2 (Homo sapiens) (UniProt P53611+Q92696); test: Inhibition of RabGGTase (unknown origin) at 50000 nM using YPTI as substrate protein and [3H]geranylgeranyl pyrophosphate incubated for 20 mins by scintillation counting assay; type: protein-complex assay
K562 [9] = test: Induction of cell cycle arrest in human K562 cells assessed as accumulation at G1 phase up to […] incubated for 48 hrs by flow cytometry; type: functional, cell-based
[10] = Inhibition of rat recombinant geranylgeranyltransferase type I expressed in Escherichia coli assessed as reduction in geranylgeranylation of RhoA incubated for 30 mins in presence of [3H]GGPP by scintillation counting assay relative to control
Rattus norvegicus [11] = organism: Rattus norvegicus; test: Inhibition of rat recombinant geranylgeranyltransferase type I expressed in Escherichia coli assessed as residual enzyme activity for geranylgeranylation of K-Ras4B at 50 uM incubated for 30 mins in presence of [3H]GGPP by scintillation counting assay relative to control
Rattus norvegicus [12] = organism: Rattus norvegicus; test: Competitive inhibition of rat recombinant geranylgeranyltransferase type I expressed in Escherichia coli assessed as reduction in geranylgeranylation of RhoA incubated for 30 mins in presence of fixed level of [3H]GGPP and varying RhoA levels by scintillation counting assay relative to control
[13] = target: Protein farnesyltransferase (Rattus norvegicus) (UniProt Q04631+Q02293); test: Inhibition of rat recombinant FTase alpha/beta expressed in Escherichia coli at 50000 nM using K-Ras4B as a substrate as and [3H]farnesyl pyrophosphate incubated for 30 mins by scintillation counting assay
HEK293 [14] = test: Inhibition of geranylgeranyltransferase type I in HEK293 cells expressing Myc-HA-tagged Rheb-WT assessed as effect on unprenylated Rap1 accumulation at 3.1 to 25 uM incubated for 48 hrs by SDS-PAGE and immunoblot analysis; type: cell-based; conditions: Homo sapiens
Rattus norvegicus [15] = organism: Rattus norvegicus; test: Inhibition of rat recombinant geranylgeranyltransferase type I expressed in Escherichia coli assessed as residual enzyme activity for geranylgeranylation of RhoA at 50 uM incubated for 30 mins in presence of [3H]GGPP by scintillation counting assay relative to control
Rattus norvegicus [16] = organism: Rattus norvegicus; test: as §1, with “Uncompetitive” for “Competitive”, “by Michaelis-Menten plot analysis” for “relative to control”
[17] = Antiproliferative activity against human MCF10A cells assessed as inhibition of cell proliferation incubated for 72 hrs by CCK8 assay; type: cell-based, MCF-10A
MDA-MB-231 = test: Antiproliferative activity against human MDA-MB-231 cells assessed as inhibition of cell proliferation incubated for 72 hrs by CCK8 assay; type: functional; conditions: MDA-MB-231, 72 h

IC50 (PANC-1): 12.6 µM
IC50 [2]: 12.5 µM
IC50 (BT-474): 11.6 µM
IC50 (Jurkat): 1.3 µM
IC50 (MCF7; MCF7, 144 h): 6.4 µM
IC50 (ASPC1): > 20 µM
IC50 (MIA PaCa-2): 13.9 µM
SMILES: Cc1ccccc1S(=O)(=O)N1[C@@H](c2ccc(Cl)cc2)C(COCC(=O)N[C@@H](Cc2ccccc2)C(N)=O)=C[C@H]1C(C)(C)C
Activity (K562 [1]): Dose-dependent effect
IC50 (HPAC): 11.7 µM
IC50 (CFPAC-1): 8.1 µM
IC50 [3]: 14.1 µM
inhibition (MCF7): Dose-dependent effect
IC50 (Capan-2): 11.1 µM
Activity (K562 [4]): Dose-dependent effect

inhibition (Rattus norvegicus [7]): inactive
inhibition [8]: inactive
IC50 [10]: 0.31 to 0.313 µM
Activity (Rattus norvegicus [11]): 14.7 to 41.7%
GI50 (Jurkat): 20 µM
inhibition (Rattus norvegicus [12]): Active
inhibition [13]: inactive
Activity (Rattus norvegicus [15]): 7.5 to 24.8%
inhibition (Rattus norvegicus [16]): Active
SMILES: Cc1ccccc1S(=O)(=O)N1[C@@H](c2cccc(Cl)c2)C(C(=O)O)=CC[C@H]1c1ccc(Cl)cc1
inhibition (K562 [5]): Active
inhibition (HEK293 [6]): Active
Activity (K562 [9]): Active
inhibition (HEK293 [14]): Active

GI50 (K562 [5]): 5.95 to 6.3 µM
GI50 (PANC-1): 8.6 to 8.85 µM
GI50 (BT-474): 10.1 to 10.8 µM
IC50 [10]: 10 to 50 µM
GI50 (Jurkat): 6.4 to 9.76 µM
GI50 (MCF7; MCF7, 144 h): 3.1 to 4.71 µM
GI50 (ASPC1): 8.61 to 11.4 µM
GI50 (MIA PaCa-2): 6.7 to 7.17 µM
SMILES: Cc1ccccc1S(=O)(=O)N1[C@@H](c2ccc(Cl)cc2)C(C(=O)N[C@@H](Cc2ccccc2)C(N)=O)=C[C@H]1C(C)CC(C)(C)C (some centres not stated)
GI50 at 72 h [17]: 9.16 to 11.3 µM
GI50 (Capan-2): 7.5 to 10.5 µM

GI50 (K562 [5]): 5.21 to 9.18 µM
GI50 (PANC-1): 9.05 to 12 µM
GI50 (BT-474): 9.08 to 9.9 µM
IC50 [10]: 6 to 16 µM
GI50 (Jurkat): 4.74 to 8.75 µM
GI50 (MDA-MB-231): 4.43 to 11.3 µM
GI50 (ASPC1): 12.2 to 16.8 µM
GI50 (MIA PaCa-2): 6.15 to 12.1 µM
SMILES: CC(C)(C)[C@@H]1C=C(C(=O)N[C@@H](Cc2ccccc2)C(N)=O)[C@H](c2ccc(Br)cc2)N1S(=O)(=O)c1ccccc1Cl
GI50 (CFPAC-1): 6.16 to 6.3 µM
GI50 (Capan-2): 8.32 to 10.7 µM
